Laboratory results from US6441019B2, “Cyclocarbamate and cyclic amide derivatives” (Wyeth, priority 1999, dated 2002).

CC1(C)OC(=O)Nc2sc(-c3cccc(Cl)c3)cc21 [Example 1, 6-(3-chlorophenyl)-1,4-dihydro-4,4-dimethyl-2H-thieno [2,3-d][1,3]oxazine-2-one]
melting point: 149 to 150 °C

CC1(C)OC(=O)Nc2cc(-c3cccc(Cl)c3)sc21 [Example 2, 6-(3-chlorophenyl)-1,4-dihydro-4,4-dimethyl-2H-thieno[3,2-d][1,3]oxazine-2-one]
melting point: 123 to 125 °C
